Measured values published in patent publication US11141413B2, “Method of treating renal cell carcinoma using N-(4-(6,7-dimethoxyquinolin-4-yloxy)phenyl)-N′-(4-fluorophenyl)cyclopropane-1,1-dicarboxamide, (2S)-hydroxybutanedioate” (Exelixis, Inc., priority 2016, dated 2021).
Where “and” joins values, the source holds several entries; their conditions need not be identical. Equal entries are not always repeated.

Tested on: advanced renal cell carcinoma (RCC)
Assay: METEOR (Study 1) randomized phase 3 trial, cabozantinib vs everolimus: PFS, OS, ORR
Type: in vivo, human
Conditions: for ORR (95% CI), IRC / ORR (95% CI), Investigator assessed / Progressive disease, IRC / Progressive disease, Investigator assessed / Stable disease, IRC / Stable disease, Investigator assessed / Confirmed ORR (95% CI), IRC / Confirmed ORR (95% CI), Investigator assessed / Confirmed responses (95% CI), IRC / Confirmed responses (95% CI), Investigator assessed: RECIST 1.1; for PFS event: all randomized
[1] = Patients With High Tumor Burden
[2] = Pts with Bone and Visceral Metastases
[3] = prior therapy subgroup Anti-PD-1/PD-L1
[4] = prior therapy subgroup Pazopanib Only
[5] = prior therapy subgroup Sunitinib Only

CO[C@H]1C[C@@H]2CC[C@@H](C)[C@@](O)(O2)C(=O)C(=O)N2CCCC[C@H]2C(=O)O[C@H]([C@H](C)C[C@@H]2CC[C@@H](OCCO)[C@H](OC)C2)CC(=O)[C@H](C)/C=C(\C)[C@@H](O)[C@@H](OC)C(=O)[C@H](C)C[C@H](C)/C=C/C=C/C=C/1C [everolimus]
Kaplan-Meier estimate of % of patients alive (6 Months landmark): 81% (76%, 85%)
Kaplan-Meier estimate of % of patients alive (12 Months landmark): 63% and 63% (58%, 78%)
Kaplan-Meier estimate of % of patients alive (18 Months landmark): 47%
Kaplan-Meier estimate of % of patients alive (18 Months landmark, listed as Everolimus): 47% (41%, 52%)
Kaplan-Meier estimate of % of patients alive (24 Months landmark): 31% (23%, 39%)
ORR (95% CI), IRC (Asia Pacific): 2 (0-11) %
ORR (95% CI), Investigator assessed (Asia Pacific): 4 (1-15) %
Progressive disease, IRC (Asia Pacific): 28%
Progressive disease, Investigator assessed (Asia Pacific): 26%
Stable disease, IRC (Asia Pacific): 60%
Stable disease, Investigator assessed (Asia Pacific): 60%
ORR (95% CI), IRC (Europe): 4 (1-8) %
ORR (95% CI), Investigator assessed (Europe): 4 (1-8) %
Progressive disease, IRC (Europe): 24%
Progressive disease, Investigator assessed (Europe): 25%
Stable disease, IRC (Europe): 65%
Stable disease, Investigator assessed (Europe): 66%
Median OS (ITT, all 658 randomized, cutoff Dec. 31, 2015): 16.5 months
Median OS (ITT, all 658 randomized, cutoff Dec. 31, 2015, listed as Everolimus): 16.5 (14.7, 18.8) months
Objective response rate (confirmed, partial responses only) per IRC (ITT, all 658 randomized, cutoff May 22, 2015): 3%
Objective response rate (confirmed, partial responses only) per IRC (ITT, all 658 randomized, cutoff May 22, 2015, listed as eve): 3%
ORR (95% CI), IRC (North America): 2 (1-7) %
ORR (95% CI), Investigator assessed (North America): 3 (1-8) %
Progressive disease, IRC (North America): 30%
Progressive disease, Investigator assessed (North America): 29%
Stable disease, IRC (North America): 59%
Stable disease, Investigator assessed (North America): 62%
Confirmed ORR (95% CI), IRC [1]: 0%
Confirmed ORR (95% CI), Investigator assessed [1]: 1 (0-4) %
Progressive disease, IRC [1]: 26%
Progressive disease, Investigator assessed [1]: 27%
Stable disease, IRC [1]: 64%
Stable disease, Investigator assessed [1]: 62%
Confirmed ORR (95% CI), IRC (Patients With Low Tumor Burden): 7 (3-12) %
Confirmed ORR (95% CI), Investigator assessed (Patients With Low Tumor Burden): 7 (4-13) %
Progressive disease, IRC (Patients With Low Tumor Burden): 28%
Progressive disease, Investigator assessed (Patients With Low Tumor Burden): 27%
Stable disease, IRC (Patients With Low Tumor Burden): 60%
Stable disease, Investigator assessed (Patients With Low Tumor Burden): 64%
Confirmed responses (95% CI), IRC (Pts with Bone Metastases): 0%
Confirmed responses (95% CI), Investigator assessed (Pts with Bone Metastases): 0%
Progressive disease, IRC (Pts with Bone Metastases): 37%
Progressive disease, Investigator assessed (Pts with Bone Metastases): 26%
Stable disease, IRC (Pts with Bone Metastases): 54%
Stable disease, Investigator assessed (Pts with Bone Metastases): 63%
Confirmed responses (95% CI), IRC [2]: 0%
Confirmed responses (95% CI), Investigator assessed [2]: 0%
Progressive disease, IRC [2]: 44%
Progressive disease, Investigator assessed [2]: 29%
Stable disease, IRC [2]: 44%
Stable disease, Investigator assessed [2]: 59%
Confirmed responses (95% CI), IRC (Pts without Bone Metastases): 4 (2-7) %
Confirmed responses (95% CI), Investigator assessed (Pts without Bone Metastases): 5 (3-9) %
Progressive disease, IRC (Pts without Bone Metastases): 24%
Progressive disease, Investigator assessed (Pts without Bone Metastases): 26%
Stable disease, IRC (Pts without Bone Metastases): 64%
Stable disease, Investigator assessed (Pts without Bone Metastases): 63%
Objective response rate per investigator (all 658 randomized, cutoff May 22, 2015): 4%
Median duration of PFS (all 658 randomized, per IRC, cutoff May 22, 2015): 3.9 months
Median duration of PFS (all 658 randomized, per IRC, cutoff May 22, 2015, listed as Everolimus): 3.9 (3.7-5.1) months and 3.9 months
Median duration of PFS (all 658 randomized, per investigator, cutoff May 22, 2015): 5.1 (3.9-5.5) months
PFS event (per IRC, cutoff May 22, 2015): 214 (66) ^ n (%)
PFS event (per investigator, cutoff May 22, 2015): 233 (71) ^ n (%)
Median PFS (first 375 randomized, per independent radiology review committee (IRC)): 3.8 months
Median PFS (first 375 randomized, per independent radiology review committee (IRC), listed as Everolimus): 3.8 (3.7, 5.4) months
Median PFS (first 375 randomized, per independent radiology review committee (IRC), listed as eve): 3.8 months
Median OS (high MET tumor expression): 15.2 months
Median OS (high tumor burden): 12.2 mo
Patients with reduction in measurable tumor lesion size (in vivo): 48%
Median OS (low MET tumor expression): 18.4 months
Median OS (low tumor burden): 19.3 mo
Median OS (patients enrolled in Canada): 12.8 mo
Median PFS (patients enrolled in Canada): 3.7 mo
ORR (patients enrolled in Canada): 0%
Median PFS (patients with bone and visceral metastases): 1.9 mo
Median PFS (patients with bone metastases): 2.7 mo
Best overall response: confirmed complete response (per IRC): 0 n
Best overall response: confirmed partial response (per IRC): 11 n
Best overall response: confirmed complete response (per investigator): 0 n
Confirmed ORR (95% CI), tumor response by IRC [3]: 0%
Confirmed ORR (95% CI), tumor response by investigator [3]: 0%
Progressive disease, tumor response by IRC [3]: 29%
Progressive disease, tumor response by investigator [3]: 14%
Stable disease, tumor response by IRC [3]: 64%
Stable disease, tumor response by investigator [3]: 86%
Confirmed ORR (95% CI), tumor response by IRC [4]: 4 (1-10) %
Confirmed ORR (95% CI), tumor response by investigator [4]: 4 (1-10) %
Progressive disease, tumor response by IRC [4]: 22%
Progressive disease, tumor response by investigator [4]: 27%
Stable disease, tumor response by IRC [4]: 66%
Stable disease, tumor response by investigator [4]: 64%
Confirmed ORR (95% CI), tumor response by IRC [5]: 3 (1-8) %
Confirmed ORR (95% CI), tumor response by investigator [5]: 4 (1-9) %
Progressive disease, tumor response by IRC [5]: 35%
Progressive disease, tumor response by investigator [5]: 29%
Stable disease, tumor response by IRC [5]: 57%
Stable disease, tumor response by investigator [5]: 63%
Deaths (second interim analysis of OS, of randomized patients): 55%
